Assay results from article PMC6431625 (Frontiers in Endocrinology, 2019).

Tests used:
FP = system: FP; set-up: method as in PMID 10454504; conditions: cited from earlier work
FP-RlucII = target: T1, FP-RlucII (Homo sapiens, UniProt P43088); experiment: Enhanced bystander BRET trafficking of FP-RlucII co-expressed with wildtype AT1R (Lyn-rGFP, rGFP-FYVE); assay type: cell-based; conditions: co-expressed WT-AT1R; HEK293; PGF2α 1 μM; Ang II data not shown
T1 construct: SP (signal peptide) (N); expressed in transfected cells; host or cells: HEK293

AT1R[Δ325]-Venus = target: T2, AT1R[Δ325]-Venus (Homo sapiens, UniProt P30556+P43088); assay type: cell-based; conditions: ligand 1 μM
T2 construct: SP (signal peptide) (N); expressed in transfected cells; host or cells: HEK 293

FP-Venus = target: T3, FP-Venus (Homo sapiens, UniProt P43088); assay type: cell-based; conditions: ligand 1 μM
T3 construct: SP (signal peptide) (N); expressed in transfected cells; host or cells: HEK 293

AT1R-WT/FP-Venus dimer = target: T4, AT1R-WT/FP-Venus dimer (Homo sapiens, UniProt P30556+P43088); assay type: cell-based; conditions: ligand 1 μM
T4 construct: SP (signal peptide) (N); expressed in transfected cells; host or cells: HEK 293

OTR-Venus = assay type: cell-based, human; conditions: ligand 1 μM
AT1R-Venus = target: T5, AT1R-Venus (Homo sapiens, UniProt P30556); assay type: cell-based; conditions: ligand 1 μM
T5 construct: SP (signal peptide) (N); expressed in transfected cells; host or cells: HEK 293
T5 sequence (P30556 1-359): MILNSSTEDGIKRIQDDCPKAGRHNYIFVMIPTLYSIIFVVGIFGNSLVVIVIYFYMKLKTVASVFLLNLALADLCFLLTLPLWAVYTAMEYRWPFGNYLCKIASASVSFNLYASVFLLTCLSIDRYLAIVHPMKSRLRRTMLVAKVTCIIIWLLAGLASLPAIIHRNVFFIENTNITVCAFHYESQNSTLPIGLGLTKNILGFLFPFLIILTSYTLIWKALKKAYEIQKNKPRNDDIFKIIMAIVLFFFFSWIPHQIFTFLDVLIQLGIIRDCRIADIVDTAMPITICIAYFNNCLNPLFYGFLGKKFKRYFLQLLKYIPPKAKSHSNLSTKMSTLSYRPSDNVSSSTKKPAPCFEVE

AT1R-RlucII = target: T6, AT1R-RlucII (Homo sapiens, UniProt P30556+P43088); experiment: Enhanced bystander BRET trafficking of AT1R-RlucII co-expressed with wildtype FP (Lyn-rGFP, rGFP-FYVE); assay type: cell-based; conditions: ligand 1 μM; co-expressed WT FP; HEK293
T6 construct: SP (signal peptide) (N); expressed in transfected cells; host or cells: HEK293

[1] = target: T7, SP-FLAG-hAT1R-KPVAT-Venus (human, UniProt P30556 1-359); experiment: FRET or BRET; living HEK 293 cells, 37°C, Kreb's buffer pH 7.4, coelenterazine h; β-arrestin-RlucII donor, receptor-Venus acceptor expressed alone (no partner receptor); ligand-induced ΔBRET after Ang II (1 μM), followed 90 min; conditions: partners not purified
T7 construct: human angiotensin II type 1 receptor, wild type; amplified from pcDNA3/SP-FLAG-hAT1R-WT; A signal peptide (SP); BRET acceptor; also called AT1R-Venus; angiotensin II type 1 receptor; not shown: Venus (after the linker KPVAT), C-terminal, kept
T7 sequence (looked up): T5 sequence (P30556 1-359)

[2] = target: T7, SP-FLAG-hAT1R-KPVAT-Venus; experiment: FRET or BRET; living HEK 293 parental cells, 37°C, Kreb's buffer pH 7.4; β-arrestin-RlucII donor, receptor-Venus acceptor co-expressed with the untagged partner receptor (AT1R-Venus, AT1R[Δ325]-Venus or OTR-Venus with FP-WT; FP-Venus with AT1R-WT); ΔBRET after PGF2α (1 μM); also other FP ligands, AT1R antagonists and endocytosis inhibitors; conditions: partners not purified

T2 sequence (P43088 whole entry, stated change not applied, one chain of several): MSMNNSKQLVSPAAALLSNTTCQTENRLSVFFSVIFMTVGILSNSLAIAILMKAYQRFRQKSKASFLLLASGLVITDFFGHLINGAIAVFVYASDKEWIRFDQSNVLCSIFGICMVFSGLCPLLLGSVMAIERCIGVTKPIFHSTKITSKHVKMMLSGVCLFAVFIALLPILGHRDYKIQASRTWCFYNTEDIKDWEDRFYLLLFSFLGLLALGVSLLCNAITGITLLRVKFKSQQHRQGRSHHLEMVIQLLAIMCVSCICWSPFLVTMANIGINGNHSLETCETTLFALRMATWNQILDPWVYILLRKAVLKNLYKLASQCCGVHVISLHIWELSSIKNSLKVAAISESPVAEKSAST
T4 sequence (P43088 whole entry, one chain of several): as the sequence (P43088 whole entry, stated change not applied, one chain of several) above
T6 sequence (P43088 whole entry, one chain of several): as the sequence (P43088 whole entry, stated change not applied, one chain of several) above
T1 sequence (P43088 whole entry, one chain of several): as the sequence (P43088 whole entry, stated change not applied, one chain of several) above
T3 sequence (P43088 whole entry): as the sequence (P43088 whole entry, stated change not applied, one chain of several) above

O=C(O)CCC/C=C\C[C@@H]1[C@@H](/C=C/[C@H](O)C2Cc3ccccc3C2)[C@@H](F)C[C@@H]1O [AL-8810]
Agonist properties at FP (FP): partial agonist properties

CCCCC[C@H](O)/C=C/[C@@H]1[C@@H](C/C=C\CCCC(=O)O)[C@@H](O)C[C@H]1O [PGF2α, prostaglandin F2α]
Trafficking of FP-RlucII (membrane Lyn-rGFP and endosome rGFP-FYVE bystander BRET) (FP-RlucII): loss of membrane-localized receptor and a transient increase in an early endosomal population | Ligand-induced recruitment of β-arrestin 1/2-RlucII to AT1R[Δ325]-Venus in the context of the dimer (AT1R[Δ325]-Venus): No responses were detected | Ligand-induced recruitment of β-arrestin 1/2-RlucII to FP-Venus alone (FP-Venus): did not induce recruitment | Ligand-induced recruitment of β-arrestin 1/2-RlucII to the AT1R-WT/FP-Venus dimer (AT1R-WT/FP-Venus dimer): did not induce recruitment | Ligand-induced recruitment of β-arrestin 1/2-RlucII to OTR-Venus in the context of the dimer (OTR-Venus): No responses were detected | Ligand-induced recruitment of β-arrestin 1/2-RlucII to AT1R-Venus alone (AT1R-Venus): no responses were detected | Trafficking of AT1R-RlucII (membrane Lyn-rGFP and endosome rGFP-FYVE bystander BRET) (AT1R-RlucII): time-dependent loss of the membrane signal and an increase in the endosomal population

B1: β-arrestin 1-RlucII (natural protein, UniProt P49407 1-418, looked up)
chain: MGDKGTRVFKKASPNGKLTVYLGKRDFVDHIDLVDPVDGVVLVDPEYLKERRVYVTLTCAFRYGREDLDVLGLTFRKDLFVANVQSFPPAPEDKKPLTRLQERLIKKLGEHAYPFTFEIPPNLPCSVTLQPGPEDTGKACGVDYEVKAFCAENLEEKIHKRNSVRLVIRKVQYAPERPGPQPTAETTRQFLMSDKPLHLEASLDKEIYYHGEPISVNVHVTNNTNKTVKKIKISVRQYADICLFNTAQYKCPVAMEEADDTVAPSSTFCKVYTLTPFLANNREKRGLALDGKLKHEDTNLASSTLLREGANREILGIIVSYKVKVKLVVSRGGLLGDLASSDVAVELPFTLMHPKPKEEPPHREVPENETPVDTNLIELDTNDDDIVFEDFARQRLKGMKDDKEEEEDGTGSPQLNNR
notes: β-arrestin 1; BRET donor; also called βarr1-RlucII
t1/2 of ligand-induced recruitment (BRET) [1]: < 2 min | t1/2 of ligand-induced recruitment (BRET) [2]: 20 min
